Experimental data: patent US20260223852A1, “FUNGICIDAL COMPOSITIONS” (SYNGENTA CROP PROTECTION AG, priority 2023, published 2026)

Columns and labels:
[1] = test system: Monographella nivalis (Microdochium nivale); experiment: Example B12: Monographella nivalis (Microdochium nivale) / liquid culture (foot rot cereals); type: cell-based; conditions: compared to untreated control
Experimental: Example B12: Monographella Nivalis (Microdochium Nivale)/Liquid Culture (Foot Rot Cereals)
(§1) Conidia of the fungus from cryogenic storage are directly mixed into nutrient broth (PDB potato dextrose broth). After placing a (DMSO) solution of test compound into a microtiter plate (96-well format), the nutrient broth containing the fungal spores is added. The test plates are incubated at 24° C. and the inhibition of growth is determined photometrically 4-5 days after application.

[2] = test system: Fusarium culmorum; experiment: microbe, parasite or virus in culture; type: cell-based; conditions: read-out: control of Fusarium culmorum
[3] = test system: Mycosphaerella graminicola (Septoria tritici); experiment: Example B19: Mycosphaerella graminicola (Septoria tritici) / liquid culture (Septoria blotch); type: cell-based; conditions: Zymoseptoria tritici, compared to untreated control
Experimental: Example B19: Mycosphaerella graminicola (Septoria tritici)/Liquid Culture (Septoria Blotch)
as §1

[4] = test system: Pyrenophora teres; experiment: Example B17: Pyrenophora teres / barley / leaf disc preventative (net blotch); type: in vivo; conditions: foliar, compared to untreated control
Experimental: Example B17: Pyrenophora teres/Barley/Leaf Disc Preventative (Net Blotch)
Barley leaf segments cv. Hasso are placed on agar in a multiwell plate (24-well format) and sprayed with the formulated test compound diluted in water. The leaf segments are inoculated with a spore suspension of the fungus 2 days after application. The inoculated leaf segments are incubated at 20° C. and 65% rh under a light regime of 12 h light/12 h darkness in a climate cabinet and the activity of a compound is assessed as disease control compared to untreated when an appropriate level of disease damage appears in untreated check leaf segments (5-7 days after application).

[5] = test system: Glomerella lagenarium (Colletotrichum lagenarium); experiment: Example B5: Glomerella lagenarium (Colletotrichum lagenarium) / liquid culture (anthracnose); type: cell-based; conditions: Colletotrichum orbiculare, compared to untreated control
Experimental: Example B5: Glomerella Lagenarium (Colletotrichum Lagenarium)/Liquid Culture (Anthracnose)
as §1, with “measured” for “determined”, “3-4” for “4-5”

[6] = test system: Botryotinia fuckeliana (Botrytis cinerea); experiment: Example B2: Botryotinia fuckeliana (Botrytis cinerea) / liquid culture (gray mould); type: cell-based; conditions: compared to untreated control
Experimental: Example B2: Botryotinia fuckeliana (Botrytis cinerea)/Liquid Culture (Gray Mould)
as §1, with “(Vogels” for “(PDB potato dextrose”, “3-4” for “4-5”

[7] = test system: Mycosphaerella arachidis (Cercospora arachidicola); experiment: Example B13: Mycosphaerella arachidis (Cercospora arachidicola) / liquid culture (early leaf spot); type: cell-based; conditions: compared to untreated control
Experimental: Example B13: Mycosphaerella arachidis (Cercospora arachidicola)/Liquid Culture (Early Leaf Spot)
as §1

[8] = test system: Blumeria graminis f. sp. tritici (Erysiphe graminis f. sp. tritici); experiment: Example B7: Blumeria graminis f. sp. tritici / wheat / leaf disc preventative (powdery mildew on wheat); type: in vivo; conditions: foliar, compared to untreated control
Experimental: Example B7: Blumeria Graminis f. Sp. Tritici (Erysiphe graminis f. Sp. Tritici)/Wheat/Leaf Disc Preventative (Powdery Mildew on Wheat)
Wheat leaf segments cv. Kanzler are placed on agar in a multiwell plate (24-well format) and sprayed with the formulated test compound diluted in water. The leaf disks are inoculated by shaking powdery mildew infected plants above the test plates 1 day after application. The inoculated leaf disks are incubated at 20° C. and 60% rh under a light regime of 24 h darkness followed by 12 h light/12 h darkness in a climate chamber and the activity of a compound is assessed as percent disease control compared to untreated when an appropriate level of disease damage appears on untreated check leaf segments (6-8 days after application).

[9] = test system: Puccinia recondita f. sp. tritici; experiment: Example B15: Puccinia recondita f. sp. tritici / wheat / leaf disc preventative (brown rust); type: in vivo; conditions: 200 ppm, compared to untreated control
Experimental: Example B15: Puccinia recondita f. Sp. Tritici/Wheat/Leaf Disc Preventative (Brown Rust)
Wheat leaf segments cv. Kanzler are placed on agar in multiwell plates (24-well format) and sprayed with the formulated test compound diluted in water. The leaf disks are inoculated with a spore suspension of the fungus 1 day after application. The inoculated leaf segments are incubated at 19° C. and 75% rh under a light regime of 12 h light/12 h darkness in a climate cabinet and the activity of a compound is assessed as percent disease control compared to untreated when an appropriate level of disease damage appears in untreated check leaf segments (7-9 days after application).

SMILES | inhibition of growth at 20 ppm [1] | inhibition of growth at 20 ppm [2] | inhibition of growth at 20 ppm [3] | pest or weed control at 200 ppm [4] | inhibition of growth at 20 ppm [5] | inhibition of growth at 20 ppm [6] | inhibition of growth at 20 ppm [7] | pest or weed control at 200 ppm [8] | control of Puccinia recondita f. sp. tritici [9]
Cn1cc(C(C)(CNC(=O)c2nnc(-c3ncc(F)cc3F)s2)c2cccc(Cl)n2)cn1 (centres unmarked) [X.15, N-[2-(6-chloro-2-pyridyl)-2-(1-methylpyrazol-4-yl)propyl]-5-(3,5-difluoro-2-pyridyl)-1,3,4-thiadiazole-2-carboxamide] | ≥ 80% | ≥ 80% | ≥ 80% | ≥ 80% | ≥ 80% | ≥ 80% | ≥ 80% | ≥ 80% | 
Cn1cc(C(C)(CNC(=O)c2cc(-c3ccc(F)cc3F)on2)c2cccc(Cl)n2)cn1 (centres unmarked) [X.01, N-[2-(6-chloro-2-pyridyl)-2-(1-methylpyrazol-4-yl)propyl]-5-(2,4-difluorophenyl)isoxazole-3-carboxamide] |  |  |  |  |  |  |  |  | at least 80%
Cn1cc(C(C)(CNC(=O)c2nnc(-c3ncc(F)cc3F)s2)c2cccc(C#N)n2)cn1 (centres unmarked) [X.14, N-[2-(6-cyano-2-pyridyl)-2-(1-methylpyrazol-4-yl)propyl]-5-(3,5-difluoro-2-pyridyl)-1,3,4-thiadiazole-2-carboxamide] |  |  | ≥ 80% | ≥ 80% | ≥ 80% | ≥ 80% |  | ≥ 80% | 
Cn1cc(C(C)(CNC(=O)c2nnc(-c3ccc(F)nc3F)s2)c2cccc(Cl)n2)cn1 (centres unmarked) [X.16, N-[2-(6-chloro-2-pyridyl)-2-(1-methylpyrazol-4-yl)propyl]-5-(2,6-difluoro-3-pyridyl)-1,3,4-thiadiazole-2-carboxamide] | ≥ 80% |  | ≥ 80% |  | ≥ 80% | ≥ 80% | ≥ 80% |  | 
Cn1cc(C(C)(CNC(=O)c2cc(-c3ncc(F)cc3F)on2)c2cccc(Cl)n2)cn1 (centres unmarked) [X.11, N-[2-(6-chloro-2-pyridyl)-2-(1-methylpyrazol-4-yl)propyl]-5-(3,5-difluoro-2-pyridyl)isoxazole-3-carboxamide] | ≥ 80% | ≥ 80% | ≥ 80% |  | ≥ 80% | ≥ 80% | ≥ 80% | ≥ 80% | 
